Assay [1] addresses T1, human MetAP2 enzyme (Homo sapiens, UniProt P50579). As to the kind of experiment: MetAP2 enzyme assay, MetAP2 enzyme complexed with cobalt ions. The conditions noted are these: MetAP2 Co pIC50, 10 μM CoCl2; -log(IC50), IC50 molar.
Procedure: DNA encoding the full-length sequence of human MetAP2 enzyme is amplified by PCR and cloned into a pFastBac expression vector (Invitrogen). Recombinant baculovirus incorporating the MetAP2 construct is generated by transposition using the Bac-to-Bac system (Invitrogen). The expression of recombinant protein is carried out by infection of Spodoptera frugiperda Sf9 cells (Invitrogen) in 5L Wave Bioreactors (Wave Biotech). Recombinant protein is isolated from cellular extracts by binding to an SP Hitrap Fast Flow or SP Sepharose (Sigma) column, and the protein is eluted using a NaCl gradient. Partially purified extracts of MetAP2 are further purified by an AKTA FPLC over a Superdex-200 column (GE). The purity of MetAP2 protein is determined on denaturing SDS-PAGE gel.
The results for each well are expressed as percent inhibition and calculated using the equation:
Assay [2] deals with T1, human MetAP2 enzyme. As to the kind of experiment: MetAP2 enzyme assay, MetAP2 enzyme complexed with manganese ions. The settings on record: MetAP2 Mn pIC50, 10 μM MnCl2; -log(IC50), IC50 molar.

T1 sequence (P50579 whole entry): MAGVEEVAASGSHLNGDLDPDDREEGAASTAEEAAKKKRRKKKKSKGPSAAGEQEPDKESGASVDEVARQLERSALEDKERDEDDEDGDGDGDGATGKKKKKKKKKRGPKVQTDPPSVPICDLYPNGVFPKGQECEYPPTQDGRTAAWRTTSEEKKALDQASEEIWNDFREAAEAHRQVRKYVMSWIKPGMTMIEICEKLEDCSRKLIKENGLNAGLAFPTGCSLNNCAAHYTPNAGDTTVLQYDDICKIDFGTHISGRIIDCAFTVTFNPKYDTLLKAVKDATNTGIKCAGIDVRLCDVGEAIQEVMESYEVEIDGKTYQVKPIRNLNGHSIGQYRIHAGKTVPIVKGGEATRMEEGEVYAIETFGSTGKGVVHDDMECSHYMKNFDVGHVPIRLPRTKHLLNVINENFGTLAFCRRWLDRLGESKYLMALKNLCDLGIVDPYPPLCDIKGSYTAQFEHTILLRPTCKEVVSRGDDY

Take `Fc1ccc2c(c1)c1[nH]ncc1n2Cc1ccccc1` [Example 1, 4-Benzyl-7-fluoro-1,4-dihydropyrazolo[4,3-b]indole]: the values for the half-inhibitory concentration (IC50) in assay [1] and in assay [2] were 39.8 nM and 31.6 nM, respectively.

With `Fc1cc2c3[nH]ncc3n(Cc3ccccc3)c2cc1F` [Example 2, 4-Benzyl-6,7-difluoro-1,4-dihydropyrazolo[4,3-b]indole], the IC50 was 100 nM in assay [1] and 50.1 nM in assay [2].

Turning to `Cc1nc(N2CC[C@@H](O)C2)ccc1-n1c2ccc(F)cc2c2[nH]ncc21` [Example 6, (3R)-1-(5-(7-Fluoropyrazolo[4,3-b]indol-4(1H)-yl)-6-methylpyridin-2-yl)pyrrolidin-3-ol], the IC50 in assay [1] and in assay [2] was 6.31 nM throughout.

With `Cc1nc(N2CCN(C)CC2)ccc1-n1c2ccc(F)cc2c2[nH]ncc21` [Example 7, 7-Fluoro-4-(2-methyl-6-(4-methylpiperazin-1-yl)pyridin-3-yl)-1,4-dihydropyrazolo[4,3-b]indole], the IC50 was 15.8 nM in assay [1] and 12.6 nM in assay [2].

For the compound `CN1CCN(c2cc(-n3c4ccc(F)cc4c4[nH]ncc43)ccn2)CC1` [Example 8, 7-Fluoro-4-(2-(4-methylpiperazin-1-yl)pyridin-4-yl)-1,4-dihydropyrazolo[4,3-b]indole], the values for the IC50 in assay [1] and in assay [2] were 25.1 nM and 5.01 nM, respectively.

Regarding `Cc1c(-n2c3ccc(F)cc3c3[nH]ncc32)ccc2nn(C)cc12` [Example 9, 4-(2,4-Dimethyl-2H-indazol-5-yl)-7-fluoro-1,4-dihydropyrazolo[4,3-b]indole], the results for the concentration for half-maximal inhibition (IC50) in assay [1] and in assay [2] were 10 nM and 6.31 nM, respectively.

As for `Cc1ccc(-n2c3ccc(F)cc3c3[nH]ncc32)c(C)n1` [Example 10, 4-(2,6-Dimethylpyridin-3-yl)-7-fluoro-1,4-dihydropyrazolo[4,3-b]indole], the IC50 was 12.6 nM in assay [1] and 7.94 nM in assay [2].

With `Cc1cccc(-n2c3ccc(F)cc3c3[nH]ncc32)n1` [Example 11, 7-Fluoro-4-(6-methylpyridin-2-yl)-1,4-dihydropyrazolo[4,3-b]indole], the results for the concentration for half-maximal inhibition (IC50) in assay [1] and in assay [2] were 100 nM and 6.31 nM, respectively.

For the compound `Cc1nc(NC[C@@H](C)O)ccc1-n1c2ccc(F)cc2c2[nH]ncc21` [Example 12, (2R)-1-((5-(7-Fluoropyrazolo[4,3-b]indol-4(1H)-yl)-6-methylpyridin-2-yl)amino)propan-2-ol], the IC50 was 12.6 nM in assay [1] and 5.01 nM in assay [2].

With `Cc1cc2cnn(C)c2cc1-n1c2ccc(F)cc2c2[nH]ncc21` [Example 14, 4-(1,5-Dimethyl-1H-indazol-6-yl)-7-fluoro-1,4-dihydropyrazolo[4,3-b]indole], the concentration for half-maximal inhibition (IC50) in assay [1] and in assay [2] was 7.94 nM throughout.

As to `Cc1cc2nn(C)cc2cc1-n1c2ccc(F)cc2c2[nH]ncc21` [Example 15, 4-(2,6-Dimethyl-2H-indazol-5-yl)-7-fluoro-1,4-dihydropyrazolo[4,3-b]indole], the IC50 in assay [1] and in assay [2] was 10 nM throughout.

With `Cc1cc2cn(C)nc2cc1-n1c2ccc(F)cc2c2[nH]ncc21` [Example 16, 4-(2,5-Dimethyl-2H-indazol-6-yl)-7-fluoro-1,4-dihydropyrazolo[4,3-b]indole], the half-maximal inhibitory concentration (IC50) was 7.94 nM in assay [1] and 6.31 nM in assay [2].

Consider `Cc1c(-n2c3ccc(F)cc3c3[nH]ncc32)ccc2c1cnn2C` [Example 17, 4-(1,4-Dimethyl-1H-indazol-5-yl)-7-fluoro-1,4-dihydropyrazolo[4,3-b]indole], for which the figures for the IC50 in assay [1] and in assay [2] were 7.94 nM and 6.31 nM, respectively.

As to `Nc1ncc(C(=O)O)cc1-n1c2ccc(F)cc2c2[nH]ncc21` [Example 18, 6-Amino-5-(7-fluoropyrazolo[4,3-b]indol-4(1H)-yl)nicotinic acid], the IC50 was 100 nM in assay [1] and 63.1 nM in assay [2].

On to `Cc1cc2[nH]ncc2cc1-n1c2ccc(F)cc2c2[nH]ncc21` [Example 19, 7-Fluoro-4-(6-methyl-1H-indazol-5-yl)-1,4-dihydropyrazolo[4,3-b]indole], for which the IC50 in assay [1] and in assay [2] was 12.6 nM in each case.

In the case of `Cc1nc(N2CC[C@@H](C(N)=O)C2)ncc1-n1c2ccc(F)cc2c2[nH]ncc21` [Example 20, (3R)-1-(5-(7-Fluoropyrazolo[4,3-b]indol-4(1H)-yl)-4-methylpyrimidin-2-yl)pyrrolidine-3-carboxamide], the results for the IC50 in assay [1] and in assay [2] were 12.6 nM and 6.31 nM, respectively.

As for `Cc1nc(N2CC[C@H](C(N)=O)C2)ncc1-n1c2ccc(F)cc2c2[nH]ncc21` [Example 21, (3S)-1-(5-(7-Fluoropyrazolo[4,3-b]indol-4(1H)-yl)-4-methylpyrimidin-2-yl)pyrrolidine-3-carboxamide], the 50% inhibitory concentration (IC50) in assay [1] is 15.8 nM; in assay [2] it was 7.94 nM.

In the case of `N#Cc1[nH]ncc1-n1c2ccc(F)cc2c2[nH]ncc21` [Example 22, 4-(7-Fluoropyrazolo[4,3-b]indol-4(1H)-yl)-1H-pyrazole-5-carbonitrile], the concentration for half-maximal inhibition (IC50) in assay [1] was 31.6 nM; in assay [2] it was 10 nM.

On to `CCn1nc(C)c(-n2c3ccc(F)cc3c3[nH]ncc32)c1C` [Example 23, 4-(1-Ethyl-3,5-dimethyl-1H-pyrazol-4-yl)-7-fluoro-1,4-dihydropyrazolo[4,3-b]indole], for which the IC50 in assay [1] is 10 nM; in assay [2] it was 15.8 nM.

Take `Cc1nc(N2CCC[C@@H](O)C2)ncc1-n1c2ccc(F)cc2c2[nH]ncc21` [Example 24, (3R)-1-(5-(7-Fluoropyrazolo[4,3-b]indol-4(1H)-yl)-4-methylpyrimidin-2-yl)piperidin-3-ol]: the half-inhibitory concentration (IC50) was 6.31 nM in assay [1] and 3.98 nM in assay [2].

Consider `Fc1ccc2c(c1)c1[nH]ncc1n2-c1cnn2c1CNCC2` [Example 25, 7-Fluoro-4-(4,5,6,7-tetrahydropyrazolo[1,5-a]pyrazin-3-yl)-1,4-dihydropyrazolo[4,3-b]indole], for which the IC50 in assay [1] is 25.1 nM; in assay [2], 12.6 nM.

As for `Cc1cc2cn[nH]c2cc1-n1c2ccc(F)cc2c2[nH]ncc21` [Example 26, 7-Fluoro-4-(5-methyl-1H-indazol-6-yl)-1,4-dihydropyrazolo[4,3-b]indole], the figures for the concentration for half-maximal inhibition (IC50) in assay [1] and in assay [2] were 10 nM and 7.94 nM, respectively.

Regarding `Cc1nc(N2CC[C@H](O)C2)ccc1-n1c2ccc(F)cc2c2[nH]ncc21` [Example 27, (3S)-1-(5-(7-Fluoropyrazolo[4,3-b]indol-4(1H)-yl)-6-methylpyridin-2-yl)pyrrolidin-3-ol], the half-inhibitory concentration (IC50) in assay [1] is 6.31 nM; in assay [2] it was 3.98 nM.

On to `Cc1c(-n2c3ccc(F)cc3c3[nH]ncc32)cnc2[nH]c(=O)[nH]c12` [Example 28, 6-(7-Fluoropyrazolo[4,3-b]indol-4(1H)-yl)-7-methyl-1H-imidazo[4,5-b]pyridin-2(3H)-one], for which the results for the IC50 in assay [1] and in assay [2] were 6.31 nM and 5.01 nM, respectively.

`Cc1nc(N2CCC(O)CC2)ncc1-n1c2ccc(F)cc2c2[nH]ncc21` [Example 29, 1-(5-(7-Fluoropyrazolo[4,3-b]indol-4(1H)-yl)-4-methylpyrimidin-2-yl)piperidin-4-ol]: the IC50 was 6.31 nM in assay [1] and 7.94 nM in assay [2].

For `CCn1cnc2cc(-n3c4ccc(F)cc4c4[nH]ncc43)c(C)nc21` [Example 30, 4-(3-Ethyl-5-methyl-3H-imidazo[4,5-b]pyridin-6-yl)-7-fluoro-1,4-dihydropyrazolo[4,3-b]indole], the results for the 50% inhibitory concentration (IC50) in assay [1] and in assay [2] were 3.98 nM and 6.31 nM, respectively.

(Values after US9475816B2, “Substituted-1,4-dihydropyrazolo[4,3-b]indoles” (TAKEDA PHARMACEUTICAL COMPANY LIMITED, priority 2012, dated 2016).)
